Values of other authors as cited in publication PMC8838197, “Coumarin-Resveratrol-Inspired Hybrids as Monoamine Oxidase B Inhibitors: 3-Phenylcoumarin versus trans-6-Styrylcoumarin” (Molecules, 2022).

Test system: MAO-B
Parameters: pIC50 MAO-B: unit not given here
Settings: cited from earlier work; for pIC50 MAO-B: Table S8; for MAO-B pIC50: data set compounds

Compound | pIC50 MAO-B | MAO-B pIC50
Cc1ccc(C(=O)Nc2cc3ccccc3oc2=O)cc1 [Compound 42] | 5.099 | –
CCC#CCNc1ccc2c(C)cc(=O)oc2c1 [Compound 151] | 5.401 | –
Cc1ccc2oc(=O)c(C(=O)Nc3ccc(O)cc3)cc2c1 [Compound 109] | 6.206 | < 6.5
Cc1ccc2occ(C(=O)Nc3cccc(O)c3)c(=O)c2c1 [Compound 125] | 7.107 | –
COc1ccc2oc(=O)c(-c3ccc(Br)cc3)cc2c1 [Compound 66, 3-(4′-bromophenyl)-6-mehtoxycoumarin] | 9.495 | > 6.5
Cc1ccc2oc(=O)c(C(=O)Nc3cccc(Cl)c3)cc2c1 [Compound 112] | 8.295 | –
Cc1ccc2oc(=O)c(C(=O)Nc3ccccc3C)cc2c1 [Compound 98] | 7.928 | –
O=c1oc2ccc(OC3CCCC3)cc2cc1-c1ccc(Br)cc1 [Compound 70] | 5.154 | –
O=C(Nc1cc2ccccc2oc1=O)c1ccc(Cl)c(Cl)c1 [Compound 48] | 5.225 | –
COc1cccc2cc(-c3ccccc3)c(=O)oc12 [Compound 34] | 6.824 | –
Cc1cc(=O)oc2cc(NC(=O)c3ccccc3)ccc12 [Compound 159] | 6.444 | –
Cc1cccc(-c2cc3cc(C)ccc3oc2=O)c1 [Compound 18] | 7.824 | –
COc1ccc2oc(=O)c(C(=O)Nc3cccc(O)c3)cc2c1 [Compound 119] | 6.641 | –
Cc1ccc2oc(=O)c(-c3ccccc3N)cc2c1 [Compound 89] | – | 5.664
COc1ccc2occ(C(=O)Nc3ccc(O)cc3)c(=O)c2c1 [Compound 135] | 6.171 | < 6.5
Cc1cccc(NC(=O)c2coc3ccc(C)cc3c2=O)c1 [Compound 123] | 7.767 | –
COc1ccccc1NC(=O)c1cc2cc(C)ccc2oc1=O [Compound 101] | 6.794 | –
O=c1oc2ccc(O)cc2cc1-c1cccc(Br)c1 [Compound 69] | 8.097 | > 6.5
COc1ccc(-c2c(O)c3cc(C)ccc3oc2=O)cc1Cl [Compound 29] | 4.37 | –
COc1ccc2oc(=O)c(-c3cccc(Br)c3)cc2c1 [Compound 67, 3-(3′-bromophenyl)-6-methoxycoumarin] | 9.187 | > 6.5
COc1cc(OC)cc(-c2cc3cccc(C)c3oc2=O)c1 [Compound 137] | 8.187 | > 6.5
COc1cc(-c2cc3c(ccc4ccccc43)oc2=O)cc(OC)c1OC [Compound 79] | 5.851 | –

Compound | pIC50 MAO-B | MAO-B pIC50
Cc1ccc2oc(=O)c(-c3ccc(O)c(O)c3)cc2c1 [Compound 136] | 5.328 | –
O=C(Nc1c(O)c2ccccc2oc1=O)c1ccc(Cl)c(Cl)c1 [Compound 93] | 4.721 | –
Cc1ccc2occ(C(=O)Nc3cccc(Cl)c3)c(=O)c2c1 [Compound 124] | 8.377 | –
COc1cccc2cc(-c3ccc(Br)cc3)c(=O)oc12 [Compound 35] | 5.48 | –
Cc1ccc2oc(=O)c(-c3ccccc3)cc2c1 [Compound 1] | 6.547 | –
COc1ccccc1-c1cc2cc(C)ccc2oc1=O [Compound 6] | 6.808 | > 6.5
Cc1ccc2oc(=O)c(-c3ccc(Br)cc3)cc2c1 [Compound 64, 3-(4′-bromophenyl)-6-methylcoumarin] | 9.412 | > 6.5
Cc1ccc2oc(=O)c(-c3cccc(N)c3)cc2c1 [Compound 90] | 8.658 | –
COc1ccc2occ(C(=O)Nc3cccc(Cl)c3)c(=O)c2c1 [Compound 131] | 8.405 | –
C#CCNc1cc2ccccc2oc1=O [Compound 148] | 6.022 | –
COc1cc(OC)cc(-c2cc3cc(C)cc(Br)c3oc2=O)c1 [Compound 10] | 8.148 | > 6.5
CC(=O)COc1ccc2oc(=O)c(-c3ccc(C)cc3)cc2c1 [Compound 15] | 5.258 | –
Cc1ccc2occ(C(=O)Nc3ccc(O)cc3)c(=O)c2c1 [Compound 128] | 6.29 | < 6.5
COc1ccc2occ(C(=O)Nc3ccccc3)c(=O)c2c1 [Compound 129] | 7.379 | –
Cc1ccc(NC(=O)c2cc3cc(C)ccc3oc2=O)cc1 [Compound 100] | 7.857 | –
COc1ccc(C(=O)Nc2cc3ccccc3oc2=O)cc1OC [Compound 46] | 4.234 | –
COc1cccc(-c2cc3c(ccc4ccccc43)oc2=O)c1 [Compound 76] | 8.613 | > 6.5
Cc1ccc2occ(C(=O)Nc3ccc(Cl)cc3)c(=O)c2c1 [Compound 127] | 7.343 | > 6.5
COc1ccc(NC(=O)c2cc3cc(C)ccc3oc2=O)cc1 [Compound 103] | 6.527 | –
CCC#CCNc1ccc2c(C(F)(F)F)cc(=O)oc2c1 [Compound 152] | 5.094 | –
COc1ccc(-c2cc3c(ccc4ccccc43)oc2=O)cc1OC [Compound 78] | 7.312 | > 6.5
Cc1ccc2oc(=O)c(C(=O)Nc3ccc(Br)cc3)cc2c1 [Compound 106] | 7.943 | > 6.5

Compound | pIC50 MAO-B | MAO-B pIC50
Cc1ccc2oc(=O)c(-c3ccc(N)cc3)cc2c1 [Compound 91] | 8.387 | > 6.5
CCC#CCNc1cc2ccccc2oc1=O [Compound 150] | 5.963 | –
COc1cc(C(=O)Nc2cc3ccccc3oc2=O)cc(OC)c1OC [Compound 47] | 4.139 | –
COc1ccc2oc(=O)c(C(=O)Nc3ccccc3)cc2c1 [Compound 116] | 8.225 | –
Cc1ccc(C(=O)Nc2ccc3c(C)cc(=O)oc3c2)cc1 [Compound 160] | 6.046 | –
O=C(Nc1cc2ccccc2oc1=O)c1ccc(Cl)cc1 [Compound 45] | 5.71 | –
Cc1cccc(NC(=O)c2cc3cc(C)ccc3oc2=O)c1 [Compound 111] | 8.124 | –
Cc1ccc2oc(=O)c(-c3ccccc3[N+](=O)[O-])cc2c1 [Compound 86] | 5.258 | –
COc1ccc(-c2cc3cc(C)ccc3oc2=O)cc1 [Compound 2] | 7.884 | –
O=C(Nc1cc2ccccc2oc1=O)c1cccnc1 [Compound 96] | 4.676 | –
COc1cccc2cc(-c3cccc(C)c3)c(=O)oc12 [Compound 141] | 7.092 | > 6.5
Cc1cc(=O)oc2cc(NC(=O)c3cccs3)ccc12 [Compound 162] | 5.799 | –
Cc1ccc2oc(=O)c(C(=O)Nc3ccccc3)cc2c1 [Compound 110] | 7.815 | –
COc1ccc2occ(C(=O)Nc3ccc(C)cc3)c(=O)c2c1 [Compound 133] | 6.676 | –
Cc1ccc2oc(=O)c(C(=O)Nc3ccccc3Br)cc2c1 [Compound 104] | 7.87 | –
COc1ccc(-c2cc3cc(C)ccc3oc2=O)cc1OC [Compound 19] | 8.564 | –
Cc1cccc(-c2cc3c(ccc4ccccc43)oc2=O)c1 [Compound 80] | 5.62 | –
O=C(Nc1c(O)c2ccccc2oc1=O)C1CCCCC1 [Compound 97] | 4.648 | –
O=C(Nc1cc2ccccc2oc1=O)c1cccs1 [Compound 94] | 5.644 | –
COc1ccc2oc(=O)c(C(=O)Nc3cccc(C)c3)cc2c1 [Compound 117] | 7.326 | –
COc1ccc2oc(=O)c(C(=O)Nc3ccc(C)cc3)cc2c1 [Compound 120] | 7.712 | –
Cc1ccc2oc(=O)c(-c3cccc([N+](=O)[O-])c3)cc2c1 [Compound 87] | 8.222 | –

Compound | pIC50 MAO-B | MAO-B pIC50
Cc1ccc2oc(=O)c(-c3ccccc3Br)cc2c1 [Compound 8] | 7.957 | > 6.5
COc1cc(OC)c(Br)c(-c2cc3cc(C)ccc3oc2=O)c1 [Compound 22] | 4.267 | –
O=C(O)COc1ccc2oc(=O)c(-c3cccc(Br)c3)cc2c1 [Compound 74] | 8.62 | > 6.5
COc1ccc2oc(=O)c(C(=O)Nc3cccc(Cl)c3)cc2c1 [Compound 118] | 8.044 | –
O=C(Nc1cc2ccccc2oc1=O)C1CCCCC1 [Compound 49] | 4.301 | –
O=c1oc2ccc3ccccc3c2cc1-c1cc(O)cc(O)c1 [Compound 85] | 4.503 | –
COc1cc(OC)c(-c2cc3cc(C)ccc3oc2=O)cc1Br [Compound 140] | 6.879 | > 6.5
CC(=O)COc1cccc(-c2cc3cc(C)ccc3oc2=O)c1 [Compound 25] | 6.745 | –
COc1ccc2oc(=O)c(C(=O)Nc3ccc(Cl)cc3)cc2c1 [Compound 121] | 7.724 | > 6.5
COc1ccc2occ(C(=O)Nc3cccc(C)c3)c(=O)c2c1 [Compound 130] | 7.662 | –
COc1cc(-c2cc3cc(C)ccc3oc2=O)ccc1Br [Compound 20] | 9.131 | > 6.5
COc1ccc2oc(=O)c(-c3ccccc3)cc2c1 [Compound 62] | 6.384 | –
Cc1ccc2oc(=O)c(C(=O)Nc3cccc(O)c3)cc2c1 [Compound 113] | 7.343 | –
Cc1ccc2oc(=O)c(C(=O)Nc3ccc(O)cc3)cc2c1 [Compound 115] | 6.206 | < 6.5
COc1cc(C(=O)Nc2c(O)c3ccccc3oc2=O)cc(OC)c1OC [Compound 92] | 4.433 | –
COc1ccc2oc(=O)c(-c3cccc(C)c3)cc2c1 [Compound 12] | 7.768 | > 6.5
COc1ccc(-c2cc3cc(C)ccc3oc2=O)cc1Br [Compound 21] | 8.488 | –
Cc1ccc(-c2cc3cc(OC4CCCC4)ccc3oc2=O)cc1 [Compound 16] | 4.84 | –
Cc1ccc(NC(=O)c2coc3ccc(C)cc3c2=O)cc1 [Compound 126] | 6.819 | –
COc1ccc2occ(C(=O)Nc3ccc(Cl)cc3)c(=O)c2c1 [Compound 134] | 7.987 | > 6.5
Cc1ccc2oc(=O)c(C(=O)Nc3ccccc3O)cc2c1 [Compound 107] | 7.738 | –
